Experimental data: US6908947B2, “Sulfonamide-substituted fused 7-membered ring compounds, their use as a medicament, and pharmaceutical preparations comprising them” (Aventis Pharma Deutschland GmbH, priority 1997, dated 2005)

| Compound | melting point [°C] |
| --- | --- |
| O=S(=O)(N[C@@H]1c2ccccc2CCC[C@H]1O)c1ccccc1 (relative stereo) [Example 16, trans-5-(N-Phenylsulfonylamino)-6,7,8,9-tetrahydro-5H-benzocyclohepten-6-ol] | 128 to 128.2 |
| Cc1ccc(S(=O)(=O)N[C@@H]2c3ccccc3CCC[C@H]2O)cc1 (relative stereo) [Example 17, trans-5-[N-(4-Methylphenyl)-sulfonylamino]-6,7,8,9-tetrahydro-5H-benzocyclo hepten-6-ol] | 124.5 to 125.1 |
| COc1ccc(S(=O)(=O)N[C@@H]2c3ccccc3CCC[C@H]2O)cc1 (relative stereo) [Example 18, trans-5-[N-(4-Methoxyphenyl)-sulfonylamino]-6,7,8,9-tetrahydro-5H-benzocyclohepten-6-ol] | 140 to 141 |
| O=S(=O)(N[C@@H]1c2ccccc2CCC[C@H]1O)c1ccc(Cl)cc1 (relative stereo) [Example 19, trans-5-[N-(4-Chlorophenyl)-sulfonylamino]-6,7,8,9-tetrahydro-5H-benzocyclohepten-6-ol] | 172 to 173 |
| CCc1ccc(S(=O)(=O)N[C@@H]2c3cc([N+](=O)[O-])ccc3CCC[C@H]2O)cc1 (relative stereo) [Example 20, trans-5-[N-(4-Ethylphenyl)-sulfonylamino]-3-nitro-6,7,8,9-tetrahydro-5H-benzocyclohepten-6-ol] | 159 to 161 |
| CN(C1CCCOc2ccccc21)S(C)(=O)=O (stereo not drawn) [Example 8, 5-(N-Methyl-N-methylsulfonylamino)-2,3,4,5-tetrahydro-1-benzoxepine] | 143 to 145 |
